Laboratory results reported in patent US20190211020A1 (Agency for Science, Technology and Research, priority 2012, published 2019).
Read-outs that look alike come from different tables or passages of the source.

Tests used:
[1] = Pharmacokinetics assays (plasma and brain); assay type: in vivo; set-up: AUC(0-t) / AUC(0-inf): concentration or dose not given beside the values; conditions: for AUC(0-t): read-out: Plasma AUC last; for Cmax: species, dose and route not given; for Plasma/Brain Ratio: in vivo
[2] = system: eIF4E Ser209 phosphorylation in Hela cells; experiment: MNK cell-based assay (AlphaScreen SureFire, eIF4E Ser209 phosphorylation); conditions: Homo sapiens, read-out: IC50 Hela
How it was run: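 Hela cells (30,000/well) exposed to test compound in serum-free medium for 2 h at 37 °C, then lysed. Phospho-Ser209 eIF4E quantified by AlphaScreen SureFire; IC50 obtained by non-linear regression of signal versus log compound concentration.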

[3] = brain, read-out: Brain T1/2 (converted)
[4] = plasma, read-out: Plasma T1/2 (converted)
[5] = eIF4E Ser209 phosphorylation, Hela cells, 2 hours

CN1CCN(C(=O)c2ccc(-c3cn4c(-c5ccc(C#N)cc5)cnc4cn3)cc2)CC1 [Entry 1]
Brain AUC inf ([1]; brain): 625 ng·h/g
Brain AUC last ([1]; brain): 520 ng·h/g
Brain Cmax ([1]; brain): 290 ng/g
half-life [1, 3]: 1.39 h
Tmax ([1]; brain, read-out: Brain Tmax): 0.5 h
AUC(0-inf) ([1]; plasma): 7440 ng·h/mL
AUC(0-t) ([1]; plasma): 7420 ng·h/mL
half-life [1, 4]: 3.02 h
Tmax ([1]; plasma, read-out: Plasma Tmax): 0.25 h
Cmax ([1]; plasma): 2670 ng/mL

CN(C)C1CCN(C(=O)c2ccc(-c3cn4c(-c5ccc(C#N)cc5)cnc4cn3)cc2)CC1 [Entry 2]
Brain AUC inf ([1]; brain): 99 ng·h/g
Brain AUC last ([1]; brain): 71 ng·h/g
Brain Cmax ([1]; brain): 14.6 ng/g
half-life [1, 3]: 4.11 h
Tmax ([1]; brain, read-out: Brain Tmax): 0.25 h
Plasma/Brain Ratio [1]: 0.13
AUC(0-inf) ([1]; plasma): 536 ng·h/mL
AUC(0-t) ([1]; plasma): 527 ng·h/mL
half-life [1, 4]: 2.06 h
Tmax ([1]; plasma, read-out: Plasma Tmax): 0.25 h
Cmax ([1]; plasma): 227 ng/mL

CN1CCN(C(=O)c2ccc(-c3ccc4ncc(-c5ccc(C#N)cc5)n4c3)cc2)CC1=O [Entry 3]
Brain AUC inf ([1]; brain): 77 ng·h/g
Brain AUC last ([1]; brain): 59 ng·h/g
Brain Cmax ([1]; brain): 77.78 ng/g
half-life [1, 3]: 0.96 h
Tmax ([1]; brain, read-out: Brain Tmax): 0.25 h
Plasma/Brain Ratio [1]: 0.01
AUC(0-inf) ([1]; plasma): 4190 ng·h/mL
AUC(0-t) ([1]; plasma): 4120 ng·h/mL
half-life [1, 4]: 2.51 h
Tmax ([1]; plasma, read-out: Plasma Tmax): 0.25 h
Cmax ([1]; plasma): 3160 ng/mL

CN1CCN(C2CCN(C(=O)c3ccc(-c4ccc5ncc(-c6ccc(C#N)cc6)n5c4)cc3)CC2)CC1 [Entry 4]
Brain AUC last ([1]; brain): 184 ng·h/g
Brain Cmax ([1]; brain): 20 ng/g
Tmax ([1]; brain, read-out: Brain Tmax): 8 h
Plasma/Brain Ratio [1]: 0.3
AUC(0-inf) ([1]; plasma): 632 ng·h/mL
AUC(0-t) ([1]; plasma): 614 ng·h/mL
half-life [1, 4]: 2.38 h
Tmax ([1]; plasma, read-out: Plasma Tmax): 0.25 h
Cmax ([1]; plasma): 223 ng/mL

N#Cc1ccc(-c2cnc3ccc(-c4ccc(C(=O)N5CCOCC5)cc4)nn23)cc1 [Entry 5]
Brain AUC inf ([1]; brain): 8951 ng·h/g
Brain AUC last ([1]; brain): 8811 ng·h/g
Brain Cmax ([1]; brain): 1724 ng/g
half-life [1, 3]: 4.28 h
AUC(0-inf) ([1]; plasma): 76500 ng·h/mL
AUC(0-t) ([1]; plasma): 74700 ng·h/mL
half-life [1, 4]: 4.33 h
Cmax ([1]; plasma): 13400 ng/mL

N#Cc1ccc(-c2cnc3ccc(-c4ccc(C(=O)N5CCNCC5)cc4)nn23)cc1 [Entry 6]
Brain AUC last ([1]; brain): 17 ng·h/g
Brain Cmax ([1]; brain): 10 ng/g
Tmax ([1]; brain, read-out: Brain Tmax): 0.25 h
Plasma/Brain Ratio [1]: 0.05
AUC(0-inf) ([1]; plasma): 359 ng·h/mL
AUC(0-t) ([1]; plasma): 350 ng·h/mL
half-life [1, 4]: 1.59 h
Tmax ([1]; plasma, read-out: Plasma Tmax): 0.25 h
Cmax ([1]; plasma): 275 ng/mL

N#Cc1ccc(-c2cnc3ccc(-c4ccc(C(=O)N5CCOCC5)cc4)cn23)cc1 [Entry 7]
Brain AUC inf ([1]; brain): 2516 ng·h/g
Brain AUC last ([1]; brain): 2474 ng·h/g
Brain Cmax ([1]; brain): 678 ng/g
half-life [1, 3]: 2.05 h
Tmax ([1]; brain, read-out: Brain Tmax): 1 h
AUC(0-inf) ([1]; plasma): 26000 ng·h/mL
AUC(0-t) ([1]; plasma): 26000 ng·h/mL
half-life [1, 4]: 2.94 h
Tmax ([1]; plasma, read-out: Plasma Tmax): 0.25 h
Cmax ([1]; plasma): 7360 ng/mL

N#Cc1ccc(-c2cnn3ccc(-c4ccc(C(=O)N5CCOCC5)cc4)nc23)cc1 [Entry 8]
Brain AUC inf ([1]; brain): 29267 ng·h/g
Brain AUC last ([1]; brain): 29166 ng·h/g
Brain Cmax ([1]; brain): 3967 ng/g
half-life [1, 3]: 2.63 h
Tmax ([1]; brain, read-out: Brain Tmax): 2 h
Plasma/Brain Ratio [1]: 0.53
AUC(0-inf) ([1]; plasma): 55100 ng·h/mL
AUC(0-t) ([1]; plasma): 54800 ng·h/mL
half-life [1, 4]: 2.78 h
Tmax ([1]; plasma, read-out: Plasma Tmax): 0.5 h
Cmax ([1]; plasma): 5970 ng/mL

CC(=O)Nc1cc(-c2ccc3ncc(-c4ccc(C#N)cc4)n3c2)ccc1C(=O)N1CCOCC1 [Entry 9]
Brain AUC inf ([1]; brain): 161 ng·h/g
Brain AUC last ([1]; brain): 156 ng·h/g
Brain Cmax ([1]; brain): 106 ng/g
half-life [1, 3]: 0.76 h
Tmax ([1]; brain, read-out: Brain Tmax): 0.5 h
Plasma/Brain Ratio [1]: 0.03
AUC(0-inf) ([1]; plasma): 5720 ng·h/mL
AUC(0-t) ([1]; plasma): 5720 ng·h/mL
half-life [1, 4]: 1.47 h
Tmax ([1]; plasma, read-out: Plasma Tmax): 0.25 h
Cmax ([1]; plasma): 3860 ng/mL

N#Cc1ccc(-c2cnc3cnc(-c4ccc(C(=O)N5CCOCC5)cc4)cn23)cc1 [Entry 10]
Brain AUC inf ([1]; brain): 775 ng·h/g
Brain AUC last ([1]; brain): 754 ng·h/g
Brain Cmax ([1]; brain): 469 ng/g
half-life [1, 3]: 0.69 h
Tmax ([1]; brain, read-out: Brain Tmax): 1 h
Plasma/Brain Ratio [1]: 0.06
AUC(0-inf) ([1]; plasma): 12800 ng·h/mL
AUC(0-t) ([1]; plasma): 12700 ng·h/mL
half-life [1, 4]: 1.11 h
Tmax ([1]; plasma, read-out: Plasma Tmax): 0.5 h
Cmax ([1]; plasma): 6400 ng/mL

CN1CCN(C2(C)CCN(C(=O)c3ccc(-c4ccc5ncc(-c6ccc(C#N)cc6)n5c4)cc3)CC2)CC1 [Example 164, 4-(6-(4-(4-methyl-4-(4-methylpiperazin-1-yl)piperidine-1-carbonyl)phenyl)imidazo [1,2-a]pyridin-3-yl)benzonitrile]
IC50 [2, 5]: < 1000 nM

N#Cc1ccc(-c2cnc3ccc(-c4ccc(C(=O)N5CCNCC5)cc4)cn23)cc1 [Example 165, 4-(6-(4-(piperazine-1-carbonyl)phenyl)imidazo [1,2-a]pyridin-3-yl)benzonitrile]
IC50 [2, 5]: < 1000 nM

CC(=O)Nc1cc(-c2ccc3ncc(-c4ccc(C#N)cc4)n3c2)ccc1C(=O)N1CCOCC1 [Example 166, N-(5-(3-(4-cyanophenyl)imidazo[1,2-a]pyridin-6-yl)-2-(morpholine-4-carbonyl)phenyl)acetamide]
IC50 [2, 5]: < 1000 nM

N#Cc1ccc(-c2cnc3ccc(-c4ccc(C(=O)N5CCOCC5)c(O)c4)cn23)cc1 [Example 167, 4-(6-(3-hydroxy-4-(morpholine-4-carbonyl)phenyl)imidazo[1,2-a]pyridin-3-yl)benzonitrile]
IC50 [2, 5]: < 1000 nM

CNC1CCN(C(=O)c2ccc(-c3ccc4ncc(-c5ccc(C#N)cc5)n4c3)cc2NC(C)=O)CC1 [Example 169, N-(5-(3-(4-cyanophenyl)imidazo[1,2-a]pyridin-6-yl)-2-(4-(methylamino)piperidine-1-carbonyl)phenyl)acetamide]
IC50 [2, 5]: < 1000 nM

CC(=O)Nc1cc(-c2ccc3ncc(-c4ccc(C#N)cc4)n3c2)ccc1C(=O)N1CCNCC1 [Example 170, N-(5-(3-(4-cyanophenyl)imidazo[1,2-a]pyridin-6-yl)-2-(piperazine-1-carbonyl)phenyl)acetamide]
IC50 [2, 5]: < 1000 nM

COC1(C)CCN(C(=O)c2ccc(-c3ccc4ncc(-c5ccc(C#N)cc5)n4c3)cc2)CC1 [Example 172, 4-(6-(4-(4-methoxy-4-methylpiperidine-1-carbonyl)phenyl)imidazo[1,2-a]pyridin-3-yl)benzonitrile]
IC50 [2, 5]: < 1000 nM

CC1(N)CCN(C(=O)c2ccc(-c3ccc4ncc(-c5ccc(Cl)cc5)n4c3)cc2)CC1 [Example 173, (4-amino-4-methylpiperidin-1-yl)(4-(3-(4-chlorophenyl)imidazo [1,2-a]pyridin-6-yl)phenyl)methanone]
IC50 ([2]; HeLa, 2 h): < 1000 nM

NC1CCN(C(=O)c2ccc(-c3ccc4ncc(-c5ccc(Cl)cc5)n4c3)cc2)CC1 [Example 174, (4-aminopiperidin-1-yl)(4-(3-(4-chlorophenyl)imidazo[1,2-a]pyridin-6-yl)phenyl)methanone]
IC50 [2, 5]: < 1000 nM

CN1CCN(C2CCN(C(=O)c3ccc(-c4ccn5ncc(-c6ccc(C#N)cc6)c5n4)cc3)CC2)CC1 [Example 179, 4-(5-(4-(4-(4-methylpiperazin-1-yl)piperidine-1-carbonyl)phenyl)pyrazolo[1,5-a]pyrimidin-3-yl)benzonitrile]
IC50 [2, 5]: < 1000 nM

N#Cc1ccc(-c2cnn3ccc(-c4ccc(C(=O)N5CCCOCC5)cc4)nc23)cc1 [Example 181, 4-(5-(4-(1,4-oxazepane-4-carbonyl)phenyl)pyrazolo[1,5-a]pyrimidin-3-yl)benzonitrile]
IC50 [2, 5]: < 1000 nM

N#Cc1ccc(-c2cnn3ccc(-c4ccc(C(=O)N5CCNCC5)cc4)nc23)cc1 [Example 183, 4-(5-(4-(piperazine-1-carbonyl)phenyl)pyrazolo[1,5-a]pyrimidin-3-yl)benzonitrile]
IC50 [2, 5]: < 1000 nM

CC(=O)N1CCN(C(=O)c2ccc(-c3ccn4ncc(-c5ccc(C#N)cc5)c4n3)cc2)CC1 [Example 184]
IC50 [2, 5]: < 1000 nM

N#Cc1ccc(-c2cnn3ccc(-c4ccc(C(=O)N5CCOCC5)cc4)nc23)cc1 [Example 185, 4-(5-(4-(morpholine-4-carbonyl)phenyl)pyrazolo [1,5-a]pyrimidin-3-yl)benzonitrile]
IC50 [2, 5]: < 1000 nM

CC(=O)NC1CCN(C(=O)c2ccc(-c3ccn4ncc(-c5ccc(C#N)cc5)c4n3)cc2)CC1 [Example 186, N-(1-(4-(3-(4-cyanophenyl)pyrazolo[1,5-a]pyrimidin-5-yl)benzoyl)piperidin-4-yl)acetamide]
IC50 [2, 5]: < 1000 nM

N#Cc1ccc(-c2cnn3ccc(-c4ccc(C(=O)N5CCOCC5)c(O)c4)nc23)cc1 [Example 187, 4-(5-(3-hydroxy-4-(morpholine-4-carbonyl)phenyl)pyrazolo [1,5-a]pyrimidin-3-yl)benzonitrile]
IC50 [2, 5]: < 1000 nM

N#Cc1ccc(-n2cnc3ccc(-c4ccc(C(=O)N5CCOCC5)cc4)cc32)cc1 [Example 190, 4-(6-(4-(morpholine-4-carbonyl)phenyl)-1H-benzo[d]imidazol-1-yl)benzonitrile]
IC50 ([2]; HeLa, 2 h): < 1000 nM
